Values quoted from earlier work, collected in patent publication US12297161B2, “Process for making sarecycline hydrochloride” (PARATEK PHARMACEUTICALS, INC., priority 2018, dated 2025).

Key:
[1] = in vivo
[2] = test system: aerobic Gram-negative gastrointestinal (GI) organisms; details: compared with minocycline and doxycycline

CON(C)Cc1ccc(O)c2c1C[C@H]1C[C@H]3[C@H](N(C)C)C(O)=C(C(N)=O)C(=O)[C@@]3(O)C(O)=C1C2=O [Sarecycline, (4S, 4aS, 5aR, 12aS)-4-dimethylamino-3, 10, 12, 12a-tetrahydroxy-7-[(methoxy (methyl)amino)-methyl]-1, 11-dioxo-1,4,4a, 5,5a, 6, 11, 12a-octahydro-naphthacene-2-carboxylic acid amide]
inflammatory lesions of moderate to severe acne vulgaris [1]: reduce inflammatory lesions
antibacterial activity against aerobic Gram-negative gastrointestinal (GI) organisms [2]: more limited activity against aerobic Gram-negative gastrointestinal (GI) organisms than minocycline and doxycycline
